IC50 data for 17 molecules are collected here from patent US8129398B2 (priority 2008, dated 2012).

The target in the assay is T1, HIV-integrase (Human immunodeficiency virus type 1 group M subtype B, UniProt P12497).
T1 construct: Recombinant integrase (0.26 ng) was incubated with the beads
Kind of assay: HIV-Integrase Inhibition Activity (SPA bead integration assay with P33 labeled target DNA). In kind it is biochemical. Particulars: recombinant integrase, class symbols; read-out: in vitro activity. The essentials: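 Strand integration read as bead-proximity CPM after P33 target DNA (0.1 fmol) and inhibitor were added to washed integrase–substrate DNA complexes on SPA beads. Enzyme bound 90 min at 37° C; EDTA (10 mM final) terminated reaction; IC50 graded A/B/C.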
For the molecule `O=C(NC12CCC(CC1)Cn1c2nc(C(=O)NCc2ccc(F)cc2)c(O)c1=O)NS(=O)(=O)c1ccccc1` [Example 330, 7,10-Ethanopyrimido[1,2-a]azepine-2-carboxamide, N-[(4-fluorophenyl)methyl]-4,6,7,8,9,10-hexahydro-3-hydroxy-4-oxo-10-[[[(phenylsulfonyl)amino]carbonyl]amino]-], the IC50 was less than 10 nM.

In the case of `CNC(=S)NC12CCC(CC1)Cn1c2nc(C(=O)NCc2ccc(F)cc2)c(O)c1=O` [Example 331, 7,10-Ethanopyrimido[1,2-a]azepine-2-carboxamide, N-[(4-fluorophenyl)methyl]-4,6,7,8,9,10-hexahydro-3-hydroxy-10-[[(methylamino)thioxomethyl]amino]-4-oxo-], the IC50 is less than 10 nM.

Take `O=C(NC(=S)NC12CCC(CC1)Cn1c2nc(C(=O)NCc2ccc(F)cc2)c(O)c1=O)c1ccccc1` [Example 332, 7,10-Ethanopyrimido[1,2-a]azepine-2-carboxamide, 10-[[(benzoylamino)thioxomethyl]amino]-N-[(4-fluorophenyl)methyl]-4,6,7,8,9,10-hexahydro-3-hydroxy-4-oxo-]: the IC50 lay in the range of 10 to 100 nM. In the case of `NC(=S)NC12CCC(CC1)Cn1c2nc(C(=O)NCc2ccc(F)cc2)c(O)c1=O` [Example 333, 7,10-Ethanopyrimido[1,2-a]azepine-2-carboxamide, 10-[(aminothioxomethyl)amino]-N-[(4-fluorophenyl)methyl]-4,6,7,8,9,10-hexahydro-3-hydroxy-4-oxo-], the IC50 is less than 10 nM. Turning to `O=C(NCc1ccc(F)cc1)c1nc2n(c(=O)c1O)CC1CCC2(Nc2ncc[nH]2)CC1` [Example 334, 7,10-Ethanopyrimido[1,2-a]azepine-2-carboxamide, N-[(4-fluorophenyl)methyl]-4,6,7,8,9,10-hexahydro-3-hydroxy-10-(1H-imidazol-2-ylamino)-4-oxo-], the IC50 is less than 10 nM. Next, `CN/C(=N\C#N)NC12CCC(CC1)Cn1c2nc(C(=O)NCc2ccc(F)c(C)c2)c(O)c1=O` [Example 335, 7,10-Ethanopyrimido[1,2-a]azepine-2-carboxamide, 10-[[(1Z)-(cyanoamino)(methylamino)methylene]amino]-N-[(4-fluoro-3-methylphenyl)methyl]-4,6,7,8,9,10-hexahydro-3-hydroxy-4-oxo-]: less than 10 nM. Next, `CN(C)C(=O)C(=O)NC12CCC(CC1)Cn1c2nc(C(=O)NCCC2CCCN2C)c(O)c1=O` (centres unmarked) [Example 336]: more than 100 nM; `CN(C)C(=O)C(=O)NC12CCC(CC1)Cn1c2nc(C(=O)NCCCN2CCCC2=O)c(O)c1=O` [Example 337]: more than 100 nM. Next, `CN(C)C(=O)C(=O)NC12CCC(CC1)Cn1c2nc(C(=O)NCC2CCCO2)c(O)c1=O` (centres unmarked) [Example 338]: more than 100 nM; `CC(CCc1ccccc1)NC(=O)c1nc2n(c(=O)c1O)CC1CCC2(NC(=O)C(=O)N(C)C)CC1` (centres unmarked) [Example 339]: 10 to 100 nM. Consider `CN(C)C(=O)C(=O)NC12CCC(CC1)Cn1c2nc(C(=O)NCC(c2ccccc2)c2ccccc2)c(O)c1=O` [Example 340], for which the IC50 was more than 100 nM.

`CC(C)CNC(=O)c1nc2n(c(=O)c1O)CC1CCC2(NC(=O)C(=O)N(C)C)CC1` [Example 341]: the IC50 is more than 100 nM. The figure for `CN(C)C(=O)C(=O)NC12CCC(CC1)Cn1c2nc(C(=O)NCCNc2ccccc2)c(O)c1=O` [Example 342] is 10 to 100 nM; for `CN(C)C(=O)C(=O)NC12CCC(CC1)Cn1c2nc(C(=O)NCCc2ccccc2)c(O)c1=O` [Example 343] it is 10 to 100 nM; for `CN(C)C(=O)C(=O)NC12CCC(CC1)Cn1c2nc(C(=O)NCCc2ccccc2Cl)c(O)c1=O` [Example 344] it is 10 to 100 nM. The figure for `CN(C)C(=O)C(=O)NC12CCC(CC1)Cn1c2nc(C(=O)NCCc2ccc(Cl)cc2)c(O)c1=O` [Example 345] is 10 to 100 nM; for `COc1ccc(CCNC(=O)c2nc3n(c(=O)c2O)CC2CCC3(NC(=O)C(=O)N(C)C)CC2)cc1` [Example 346] it is more than 100 nM.
